Data from patent US7622551B2, “Leukocyte stimulating peptides” (POSCO, priority 2004, dated 2009).
Where no end group is shown, it is not given here.

Experiments:
[1] = system: differentiated HL60 cells; experiment: Arachidonic acid (AA) release in [3H]AA-labeled dHL60 cells; type: cell-based, human; settings: for Inhibition of AA release induced by P14, P18, P21, P24 / AA release stimulating activity (in words): dHL60 cells; for Inhibition of AA release induced by P14, P18, P21, P24: 1 μM peptide, MAFP, AACOCF3, BEL at 10 μM; for AA release stimulating activity (in words): 10 μM; for Folds of increase (% of total), arachidonic acid release: differentiated HL60 cells, 10 μM of peptide
Experimental: (§1) U937 (human histiocytic lymphoma cells), HL60 (human promyelocytic leukemia cells), Raw 264.7 (mouse macrophage), Jurkat (human acute T cell leukemia), PC12 (rat adrenal pheochromocytoma cells), 3Y1 (Rat embryonic fibroblasts), 3T3L1 (preadipocytes), and NCI-H292 (human mucoepidermoid pulmonary carcinoma cells) were obtained from the American Type Culture Collection (Rockville, Md.) and maintained as recommended. FPR- or FPRL1 expressing RBL-2H3 cells were cultured as described previously (He et al. J. Immunol. 2000. 165: 4598-4605). Cells were maintained at about 1×10^6 cells/ml under standard incubator conditions (humidified atmosphere, 95% air, 5% CO2, at 37° C.). HL60 cells were induced to differentiate into the granulocyte phenotype by adding dimethylsulfoxide (DMSO) (final concentration 1.25%, v/v) for 4 days to the culture medium, as described previously (Itoh et al. Blood. 1998. 92: 1432-1441).
For the initial screening of the PS-SPCLs, we measured the AA release stimulating activity of each peptide pool. Cultured dHL60 cells (10^7 cells/ml) were pre-labeled with 0.5 μCi/ml of (^3H)-AA in RPMI 1640 medium containing 10% FBS for 90 min at 37° C. in a humidified incubator supplied with 95% air and 5% CO2, as described previously (Bae et al. J. Immunol. 2000. 164: 4089-4096). The labeled cells were then washed twice with serum-free RPMI 1640 and incubated in RPMI 1640 medium containing 0.1% fatty acid-free BSA for 15 min at 37° C. After discarding the medium, the cells were stimulated with various concentrations of peptide for the indicated times. Radioactivity in the medium and of collected cells was determined with a liquid scintillation counter. When investigating the effects of inhibitors, cells were preincubated with the indicated concentrations of each inhibitor or vehicle for 15 min prior to stimulation.

[2] = system: differentiated HL60 cells; experiment: [Ca2+]i increase in fura-2 loaded dHL60 cells; type: cell-based, human; settings: for Concentration of maximal activity, [Ca^2+]i increase: data not shown; for [Ca^2+]i: differentiated HL60 cells, fura-2, 1 μM of peptide
Experimental: as §1
(§2) The level of [Ca^2+]i was determined using Grynkiewicz's method using fura-2/AM (Grynkiewicz et al. J. Biol. Chem. 1985. 260: 3440-3550). Briefly, prepared cells were incubated with 3 μM of fura-2/AM at 37° C. for 50 min in serum-free RPMI 1640 medium under continuous stirring. 2×10^6 cells were aliquoted for each assay in Ca^2+ free Locke's solution (154 mM NaCl, 5.6 mM KCl, 1.2 mM MgCl2, 5 mM HEPES, pH 7.3, 10 mM glucose, and 0.2 mM EGTA). Fluorescence changes were measured at the dual excitation wavelength of 340 nm and 380 nm, and the calculated fluorescence ratio was translated into [Ca^2+]i.

[3] = system: human neutrophils; experiment: Superoxide generation (cytochrome c reduction) in human neutrophils; type: cell-based
Experimental: Peripheral blood leukocyte concentrates were donated by the Ulsan Red Cross Blood Center (Ulsan, Korea). PBMCs were separated on a Histopaque-1077 gradient. After two washings with HBSS without Ca^2+ and Mg^2+, the PBMCs were suspended in 10% FBS containing RPMI and incubated for 60 min at 37° C. to let the monocytes attach to the culture dish. Cells were washed 5 times with warmed RPMI medium to remove lymphocytes, and then the attached monocytes were collected, as described previously (Bae et al. J. Leukoc. Biol. 1999. 65: 241-248). Human neutrophils were isolated according to standard procedures; i.e., dextran sedimentation, hypotonic lysis of erythrocytes, and using a medium lymphocyte separation gradient, as described previously (Seo et al. J. Immunol. 1997. 158: 1895-1901). Isolated human leukocytes were then used promptly.
We determined superoxide anion generation by measuring cytochrome c reduction using a microtiter 96 well plate ELISA reader (Bio-Tekinstruments, EL312e, Winooski, Vt.) as described previously (Bae et al. Blood. 2001. 97: 2854-2862). Human neutrophils (1×10^6 cells/100 μl of RPMI 1640 medium per well of a 96-well plate) were preincubated with 50 μM of cytochrome c at 37° C. for 1 min and then incubated with the indicated peptide concentrations. Superoxide generation was determined from change in light absorption at 550 nm over 5 minutes at 1 min intervals.

[4] = system: human monocytes; experiment: Chemotaxis assay (modified Boyden chamber), monocytes; type: cell-based; settings: FIG. 6B; control peptide at concentrations less than 10 μM
Experimental: FIGS. 6A and 6B show chemotactic effect of peptides. Assays were performed using a modified Boyden chamber assay, as described in the Examples. Isolated human neutrophils (A) or monocytes (B) (1×10^6 cells/ml in serum free RPMI) were added to the upper wells of a 96-well chemotaxis chamber and migration across a 3 μm pore size (5 μm for monocytes) polycarbonate membrane was assessed after 2 hrs incubation at 37° C. The numbers of migrated cells were determined by counting them in a high power field (400×). Results are presented as means±S.E. of three independent experiments each performed in duplicate.
Chemotaxis assays were performed using multiwell chambers (Neuroprobe Inc., Gaithersburg, Md.) (Bae et al. Blood. 2001. 97: 2854-2862). Briefly, prepared human monocytes were suspended in RPMI at a concentration of 1×10^6 cells/ml, and 25 μl of the suspension was then placed onto the upper well of a chamber separated by a 5 μm polyhydrocarbon filter (3 μm pores size not polyvinylpyrrolidone coated, as is needed for neutrophils) from peptides or N-formyl-methionyl-leucyl-phenylalanine (fMLF) in the lower well. After incubation for 2 hours (90 minutes for neutrophils) at 37° C., non-migrated cells were removed by scraping, and cells that migrated across the filter were dehydrated, fixed, and stained with hematoxylin (Sigma, St. Louis, Mo.). Stained cells were counted in five randomly chosen high power fields (HPF) (400×) (Bae et al. Blood. 2001. 97: 2854-2862).

[5] = system: undifferentiated HL60 cells; experiment: [Ca2+]i increase in undifferentiated HL60 cells; type: cell-based, human; settings: peptides 10 μM (FIG. 8)
Experimental: as §1, §2

Row | Molecule | AA release stimulating activity (in words) [1] | Folds of increase (% of total), arachidonic acid release [1] [folds] | [Ca^2+]i [2] [nM] | further results
1 | CC(=O)OCOC(=O)CN(CC(=O)OCOC(C)=O)c1ccccc1OCCOc1ccccc1N(CC(=O)OCOC(C)=O)CC(=O)OCOC(C)=O [BAPTA/AM, reference compound] |  |  |  | Inhibition of AA release induced by P14, P18, P21, P24 [1]: inhibited
2 | RKYYVM-NH2 [Peptide P17] | most potent | 2.82 ± 0.210 | 143 ± 10.2 | Concentration of maximal activity, [Ca^2+]i increase ([2]; dHL60 cells): approximately 3 μM; Superoxide generation (in words) [3]: stimulate superoxide generation in a concentration-dependent manner; Cellular chemotaxis in human monocytes (in words) [4]: induced cellular chemotaxis
3 | CSCC[C@H](NC=O)C(=O)N[C@@H](CC(C)C)C(=O)N[C@@H](Cc1ccccc1)C(=O)O [fMLF, N-formyl-methionyl-leucyl-phenylalanine, reference compound] |  |  |  | Superoxide production ([3]; 1 μM of peptide, cytochrome c reduction): 26.5 ± 1.32 nmole/10^6 cells; [Ca^2+]i increase in undifferentiated HL60 cells [5]: did not affect
4 | MKYYVM-NH2 [Peptide P23] | most potent | 3.05 ± 0.401 | 153 ± 13.2 | Concentration of maximal activity, [Ca^2+]i increase ([2]; dHL60 cells): approximately 3 μM
5 | MKYYPM-NH2 [Peptide P22] | most potent | 2.95 ± 0.668 | 168 ± 21.6 | Concentration of maximal activity, [Ca^2+]i increase ([2]; dHL60 cells): approximately 3 μM
6 | KKYYVM-NH2 [Peptide P11] | most potent | 2.49 ± 0.023 | 158 ± 25.3 | Concentration of maximal activity, [Ca^2+]i increase ([2]; dHL60 cells): approximately 3 μM
7 | KKHYVM-NH2 [Peptide P5] |  | 1.68 ± 0.390 | 34 ± 9.5 | 
8 | KKHHVM-NH2 [Peptide P2] |  | 1.23 ± 0.153 | 0 | 
9 | CCCCC/C=C\C/C=C\C/C=C\C/C=C\CCCC(=O)C(F)(F)F [AACOCF3, reference compound] |  |  |  | Inhibition of AA release induced by P14, P18, P21, P24 [1]: almost completely prevented
10 | KKHYYM-NH2 [Peptide P6] |  | 1.52 ± 0.296 | 50 ± 11.7 | 
11 | RKYYKM-NH2 [Peptide P15] |  | 1.71 ± 0.214 | 77 ± 12.1 | 
12 | RKYYPM-NH2 [Peptide P16] | most potent | 2.57 ± 0.450 | 135 ± 21.4 | Concentration of maximal activity, [Ca^2+]i increase ([2]; dHL60 cells): approximately 3 μM
13 | KKHYKM-NH2 [Peptide P3] |  | 1.45 ± 0.306 | 8 ± 3.2 | 
14 | KKYYKM-NH2 [Peptide P9] |  | 1.49 ± 0.268 | 85 ± 15.8 | 
15 | KKYHKM-NH2 [Peptide P7] |  | 1.42 ± 0.226 | 0 | [Ca^2+]i increase (in words) ([2]; dHL60 cells, 1 μM): did not affect
16 | KKHHKM-NH2 [Peptide P1] |  | 1.25 ± 0.168 | 0 | [Ca^2+]i increase (in words) ([2]; dHL60 cells, 1 μM): did not affect
17 | O=C1O/C(=C/Br)CCC1c1cccc2ccccc12 (stereo not shown) [BEL, reference compound] |  |  |  | Inhibition of AA release induced by P14, P18, P21, P24 [1]: did not interfere
18 | KKHYPM-NH2 [Peptide P4] |  | 1.41 ± 0.247 | 14 ± 4.1 | 
19 | Nc1ncnc2c1ncn2[C@@H]1O[C@H](COP(=O)(O)OP(=O)(O)OP(=O)(O)O)[C@@H](O)[C@H]1O [ATP, reference compound] |  |  |  | [Ca^2+]i increase (in words) ([2]; dHL60 cells, 500 μM of ATP (FIG. 4)): stimulated; Effect of PTX on agonist-induced [Ca^2+]i rise ([2]; dHL60 cells, PTX 150 ng/ml for 20 hr): not inhibited
20 | RKYHKM-NH2 [Peptide P13] |  | 1.47 ± 0.220 | 10 ± 4.2 | 
21 | KKYHVM-NH2 [Peptide P8] |  | 1.30 ± 0.170 | 31 ± 3.5 | 
22 | MKYHVM-NH2 [Peptide P20] | most potent | 2.55 ± 0.271 | 155 ± 16.3 | 
23 | CCCCC[C@H](O)/C=C/C=C\C=C\C=C\[C@@H](O)[C@@H](O)CCCC(=O)O [lipoxin A4, reference compound] |  |  |  | [Ca^2+]i increase in undifferentiated HL60 cells [5]: did not affect
24 | KKYYYM-NH2 [Peptide P12] | most potent | 2.58 ± 0.168 | 153 ± 13.2 | Concentration of maximal activity, [Ca^2+]i increase ([2]; dHL60 cells): approximately 3 μM
25 | KKYYPM-NH2 [Peptide P10] | most potent | 2.27 ± 0.199 | 152 ± 28.7 | Concentration of maximal activity, [Ca^2+]i increase ([2]; dHL60 cells): approximately 3 μM
26 | MKYHKM-NH2 [Peptide P19] |  | 1.68 ± 0.221 | 13 ± 3.0 | 
